Experimental findings from patent US9266872B2, “2-hydroxyarylamide derivative or pharmaceutically acceptable salt thereof, preparation method thereof, and pharmaceutical composition for preventing or treating cancer containing same as active ingredient” (KOREA RESEARCH INSTITUTE OF BIOSCIENCE AND BIOTECHNOLOGY, priority 2011, dated 2016) are described below.

In the assay the target is T1, TMPRSS4 serine protease (Homo sapiens, UniProt Q9NRS4).
T1 construct: TMPRSS4 serine protease domain (205th Val˜437th Leu) was cloned in pET21b/NdeI-XhoI; inferred from pET21b XhoI cloning and Ni-NTA purification) (C); made in house; host or cells: E. coli BL21 (DE3)
T1 sequence (Q9NRS4 205-437): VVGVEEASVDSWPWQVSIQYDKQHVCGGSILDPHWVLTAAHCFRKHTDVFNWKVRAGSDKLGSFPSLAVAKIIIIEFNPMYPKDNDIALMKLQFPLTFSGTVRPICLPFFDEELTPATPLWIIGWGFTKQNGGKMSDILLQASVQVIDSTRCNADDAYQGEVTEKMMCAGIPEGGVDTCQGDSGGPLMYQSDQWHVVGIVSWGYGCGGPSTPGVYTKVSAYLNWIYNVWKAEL
Nature of the assay: Inhibitory effect on TMPRSS4 serine protease activity using peptide substrate. Type of assay: biochemical. The following applies: for inhibition at 30 µM: read-out: Intracellular protease activity Inhibition % 30 uM; for inhibition at 10 µM / Intracellular protease activity Inhibition % 10 uM: 10 uM compound; for inhibition at 10 µM: read-out: Intracellular protease activity Inhibition % 10 uM; for inhibition at 100 µM: 100 uM compound, read-out: Intracellular protease activity Inhibition % 100 uM. On the procedure:
TMPRSS4 serine protease domain (205th Val˜437th Leu) was cloned in pET21b/NdeI-XhoI, which was introduced in E. coli BL21 (DE3). At this time, FlagX2-enterokinase cleavage site ([…]; total 15 amino acids) was inserted in N-terminal of TMPRSS4 serine protease domain as shown in FIG. 1. The forward and reverse primers for PCR used for the cloning were presented by SEQ. ID. NO: 1 and NO: 2.
The cells were cultured in 10 ml of LB containing ampicillin at 37° C. overnight. IL of LB+ampicillin was added thereto, followed by further culture until OD reached 0.6˜0.8. 0.1 mM IPTG was added thereto, followed by further culture for 16 hours. Cell pellet was obtained, purified by Ni-NTA (Qiagen), and dialyzed. TMPRSS4 serine protease (pro-form) labeled with 2 mg of 2Xflag-enterokinase cleavage site was conjugated to Ni-NTA resin (4°, overnight). Enterokinase (NEB) was treated thereto at the concentration of 0.0002%/w/w at room temperature for 5 hours. The sample was washed, eluted with 50 mM imidazole in 20 mM of sodium phosphate buffer, and then dialyzed.
The protein activity was evaluated by measuring fluorescence shown during hydrolysis of the peptide. […] Reaction was induced after adding 100 μM of the peptide substrate into reaction buffer (50 mM Tris-HCl (pH 8.0), 10 mM CaCl2, 1 μM ZnCl2). Then, fluorescence was measured at 5 minutes interval (excitation 385 nm, emission 455 nm).
Then, fluorescence (excitation 385 nm/emission 455 nm) was measured at 5 minutes interval for 150 minutes. […] Dimethylsulfoxide (DMSO) was used as the negative control.

Where [1] appears, read: 30 uM compound, kallikrein peptide substrate 100 μM, DMSO negative control.
The mark [2] stands for this setting: kallikrein peptide substrate 100 μM, DMSO negative control.

Take `NCCc1ccc(S(=O)(=O)F)cc1` [AEBSF, reference compound]: the “TMPRSS4 serine protease active form activity (hydrolysis of peptide substrate)” value (1 mM, trypsin and kallikrein peptide substrates) is given as “inhibited”.
What is called inhibition is how much of the control response was suppressed. Turning to `O=C(Nc1cc(C(F)(F)F)cc(C(F)(F)F)c1)c1cc(Cl)cc(Cl)c1O` [Example 2, N-(3,5-bis(trifluoromethyl)phenyl)3,5-dichloro-2-hydroxybenzamide], the inhibition at 30 µM under setting [1] is 100%.
In the case of `Cc1ccc(O)c(C(=O)Nc2cc(C(F)(F)F)cc(C(F)(F)F)c2)c1` [Example 3, N-(3,5-bis(trifluoromethyl)phenyl)-2-hydroxy-5-methylbenzamide], the inhibition at 10 µM under setting [2] was 0%. Further, the inhibition at 30 µM under setting [1] came out at 64%.
On to `O=C(Nc1ccc(F)c(C(F)(F)F)c1)c1cc(Cl)ccc1O` [Example 4, 5-chloro-N-(4-fluoro-3-(trifluoromethyl)phenyl)-2-hydroxybenzamide], for which, under setting [2], the “Intracellular protease activity Inhibition % 10 uM” value is on record as 64%, the inhibition at 10 µM was in the range of 51 to 100% and the inhibition at 100 µM was 98%. Further, the inhibition at 30 µM under setting [1] turned out to be 86%.
Take `O=C(Nc1cc(C(F)(F)F)cc(C(F)(F)F)c1)c1ccccc1O` [Example 5, N-(3,5-bis(trifluoromethyl)phenyl)-2-hydroxybenzamide]: under setting [2], the inhibition at 10 µM was found to be 0%. Besides, the inhibition at 30 µM under setting [1] worked out at 20%.
For `COc1ccc(O)c(C(=O)Nc2cc(C(F)(F)F)cc(C(F)(F)F)c2)c1` [Example 7, N-(3,5-bis(trifluoromethyl)phenyl)-2-hydroxy-5-methoxybenzamide], in that order: 0% and 53%.
As for `O=C(Nc1cc(C(F)(F)F)cc(C(F)(F)F)c1)c1cc(Br)ccc1O` [Example 9, N-(3,5-bis(trifluoromethyl)phenyl)-5-bromo-2-hydroxybenzamide], under setting [2], the “Intracellular protease activity Inhibition % 10 uM” value was determined as 54% and the inhibition at 10 µM was 51 to 100%. The inhibition at 30 µM under setting [1] amounted to 84%.
Regarding `O=C(Nc1cccc(C(F)(F)F)c1)c1cc(Cl)ccc1O` [Example 10, 5-chloro-N-(3-(trifluoromethyl)phenyl)-2-hydroxybenzamide], the inhibition at 10 µM under setting [2] amounted to 37%. In addition, the inhibition at 30 µM under setting [1] worked out at 91%.
In the case of `N#Cc1cccc(NC(=O)c2cc(Cl)ccc2O)c1` [Example 11, 5-chloro-N-(3-cyanophenyl)-2-hydroxybenzamide], under setting [2], the inhibition at 10 µM was 12% and the inhibition at 100 µM amounted to 88%. For the same molecule, under setting [1], the inhibition at 30 µM was 47%.
`N#Cc1ccc(NC(=O)c2cc(Cl)ccc2O)cc1` [Example 12, 5-chloro-N-(4-cyanophenyl)-2-hydroxybenzamide]: the inhibition at 30 µM under setting [1] amounted to 29%. Under setting [2], the inhibition at 100 µM came to 69%.
Turning to `O=C(Nc1cc(C(F)(F)F)cc(C(F)(F)F)c1)c1ccc(C(F)(F)F)cc1O` [Example 13, N-(3,5-bis(trifluoromethyl)phenyl)-4-(trifluoromethyl)-2-hydroxybenzamide], the inhibition at 10 µM under setting [2] came to 32%. In addition, the inhibition at 30 µM under setting [1] came to 79%.
For `O=C(Nc1cc(C(F)(F)F)cc(C(F)(F)F)c1)c1cc(F)ccc1O` [Example 14, N-(3,5-bis(trifluoromethyl)phenyl)-5-fluoro-2-hydroxybenzamide], in that order: 0% and 55%.
`O=C(Nc1ccc(C(F)(F)F)cc1)c1cc(Cl)ccc1O` [Example 15, 5-chloro-N-(4-(trifluoromethyl)phenyl)-2-hydroxybenzamide]: the inhibition at 10 µM under setting [2] was 22%. Besides, the inhibition at 30 µM under setting [1] came out at 100%.
As for `O=C(Nc1ccc(Br)c(C(F)(F)F)c1)c1cc(Cl)ccc1O` [Example 16, N-(4-bromo-3-(trifluoromethyl)phenyl)-5-chloro-2-hydroxybenzamine], under setting [2], the “Intracellular protease activity Inhibition % 10 uM” value stood at 80% and the inhibition at 100 µM was determined as 98%. Also, under setting [1], the “Intracellular protease activity Inhibition % 30 uM” value is given as 93%.
Regarding `O=C(Nc1cc(C(F)(F)F)ccc1C(F)(F)F)c1cc(Cl)ccc1O` [Example 18, N-(2,5-bis(trifluoromethyl)phenyl)-5-chloro-2-hydroxybenzamine], the inhibition at 10 µM under setting [2] worked out at 46%. Moreover, the inhibition at 30 µM under setting [1] came out at 54%.
Take `O=C(Nc1cc(C(F)(F)F)ccc1Br)c1cc(Cl)ccc1O` [Example 20, N-(2-bromo-5-(trifluoromethyl)phenyl)-5-chloro-2-hydroxybenzamide]: under setting [2], the inhibition at 10 µM was 40%. Further, the inhibition at 30 µM under setting [1] stood at 100%.
In the case of `O=C(Nc1cc(C(F)(F)F)ccc1F)c1cc(Cl)ccc1O` [Example 21, 5-chloro-N-(2-fluoro-5-(trifluoromethyl)phenyl)-2-hydroxybenzamide], under setting [1], the inhibition at 30 µM was found to be 100%.
In the case of `O=C(Nc1cc(C(F)(F)F)ccc1Cl)c1cc(Cl)ccc1O` [Example 23, 5-chloro-N-(2-chloro-5-(trifluoromethyl)phenyl)-2-hydroxybenzamide], under setting [2], the “Intracellular protease activity Inhibition % 10 uM” value is 64%, the inhibition at 10 µM is 51 to 100% and the inhibition at 100 µM is 100%. In addition, under setting [1], the inhibition at 30 µM stood at 99%.
On to `O=C(NCc1cc(C(F)(F)F)cc(C(F)(F)F)c1)c1cc(Cl)ccc1O` [Example 24, N-(3,5-bis-trifluoromethyl-benzyl)-5-chloro-2-hydroxy-benzamide], for which the inhibition at 10 µM under setting [2] amounted to 36%. For the same molecule, the inhibition at 30 µM under setting [1] is 63%.
Turning to `O=C(Nc1cc(C(F)(F)F)cc(C(F)(F)F)c1)c1cccc(Cl)c1O` [Example 26, N-(3,5-bis-trifluoromethyl-phenyl)-3-chloro-2-hydroxy-benzamide], under setting [2], the “Intracellular protease activity Inhibition % 10 uM” value is listed as 61% and the inhibition at 10 µM was in the range of 51 to 100%. Besides, the inhibition at 30 µM under setting [1] was determined as 93%.
As to `O=C(Nc1cc(C(F)(F)F)cc(C(F)(F)F)c1Cl)c1cc(Cl)ccc1O` [Example 29, 5-chloro-N-(2-chloro-3,5-bis-trifluoromethyl-phenyl)-2-hydroxy-benzamide], under setting [2], the inhibition at 10 µM stood at 43%. Further, under setting [1], the inhibition at 30 µM stood at 100%.
Take `O=C(Nc1cc(C(F)(F)F)cc(C(F)(F)F)c1)c1cc(-c2ccc(F)cc2F)ccc1O` [Example 30]: the inhibition at 10 µM under setting [2] amounted to 5%. In addition, the inhibition at 30 µM under setting [1] was 31%.
Regarding `Nc1ccc(O)c(C(=O)Nc2cc(C(F)(F)F)cc(C(F)(F)F)c2)c1` [Example 31, 5-amino-N-(3,5-bis(trifluoromethyl)phenyl)-2-hydroxybenzamide], under setting [2], the inhibition at 10 µM was 3%. The inhibition at 30 µM under setting [1] came to 30%.
As for `Cc1cc(Cl)cc(C(=O)Nc2cc(C(F)(F)F)cc(C(F)(F)F)c2)c1O` [Example 34, N-(3,5-bis(trifluoromethyl)phenyl)-5-chloro-2-hydroxy-3-methylbenzamide], the inhibition at 10 µM under setting [2] was found to be 33%. Also, the inhibition at 30 µM under setting [1] was found to be 78%.
In the case of `CC(=O)Nc1ccc(O)c(C(=O)Nc2cc(C(F)(F)F)cc(C(F)(F)F)c2)c1` [Example 35, 5-acetamido-N-(3,5-bis(trifluoromethyl)phenyl)-2-hydroxybenzamide], the inhibition at 10 µM under setting [2] is 0%. Moreover, the inhibition at 30 µM under setting [1] was found to be 0%.
As for `NC(=O)c1ccc(O)c(C(=O)Nc2cc(C(F)(F)F)cc(C(F)(F)F)c2)c1` [Example 38, N^3-(3,5-bis-trifluoromethyl-phenyl)-4-hydroxy-isophthalamide], the inhibition at 10 µM under setting [2] was 0%. Besides, the inhibition at 30 µM under setting [1] is 21%.
As for `COc1c(C(F)(F)F)cc(NC(=O)c2cc(Cl)ccc2O)cc1C(F)(F)F` [Example 39, 5-chloro-2-hydroxy-N-(4-methoxy-3,5-bis-trifluoromethyl-phenyl)-benzamide], under setting [2], the “Intracellular protease activity Inhibition % 10 uM” value came out at 56% and the inhibition at 10 µM is 51 to 100%. Further, the inhibition at 30 µM under setting [1] was determined as 80%.
On to `O=C(Nc1ccccn1)c1cc(Cl)ccc1O` [Example 40, 5-chloro-2-hydroxy-N-(pyridine-2-yl)benzamide], for which, under setting [1], the inhibition at 30 µM came to 0%. Moreover, the inhibition at 100 µM under setting [2] was 11%.
For `O=C(Nc1ccc(C(F)(F)F)cn1)c1cc(Cl)ccc1O` [Example 41, 5-chloro-2-hydroxy-N-(5-(trifluoromethyl)pyridine-2-yl)benzamide], the inhibition at 30 µM under setting [1] is 25%. The inhibition at 100 µM under setting [2] was 47%.
In the case of `O=C(Nc1ccc(Cl)cn1)c1cc(Cl)ccc1O` [Example 42, 5-chloro-N-(5-chloropyridine-2-yl)-2-hydroxybenzamide], the inhibition at 30 µM under setting [1] stood at 14%. The inhibition at 100 µM under setting [2] was 55%.
Turning to `O=C(Nc1c(F)c(F)nc(F)c1F)c1cc(Cl)ccc1O` [Example 43, 5-chloro-2-hydroxy-N-(perfluoropyridine-4-yl)benzamide], the inhibition at 30 µM under setting [1] came to 31%. Also, under setting [2], the inhibition at 100 µM stood at 51%.
